Experimental data published in patent US9926324B2, “Heteroaromatic compounds as PI3 kinase modulators and methods of use” (Calitor Sciences, LLC, priority 2012, dated 2018).
Like-named read-outs stand apart in the source and are kept apart here.

What was measured:
[1] = Pharmacokinetic profiles in rats after intravenous and oral administration; format: in vivo; conditions: for F: oral dose generally 5 or 10 mg/kg; for AUC(0-t) / half-life / Vd: rat, plasma; for Vd: read-out: Vss
Experimental: The compounds disclosed herein are assessed in pharmacokinetic studies in mice, rats, dogs or monkeys. The compounds are administered as a water solution, 2% HPMC+1% TWEEN® 80 in water solution, 5% DMSO+5% solutol in saline, 4% MC suspension or capsule. For the intravenous administration, the animals are generally given at 1 or 2 mg/kg dose. For the oral (p.o.) dosing, mice and rats are generally given 5 or 10 mg/kg dose, and dogs and monkeys are generally given 10 mg/kg dose. The blood samples (0.3 mL) are drawn at 0.25, 0.5, 1.0, 2.0, 3.0, 4.0, 6.0, 8.0, 12 and 24 h time points or 0.083, 0.25, 0.5, 1.0, 2.0, 4.0, 6.0, 8.0 and 24 h time points and centrifuged at 3,000 or 4000 rpm for 2 to 10 min. The plasma solutions are collected, stored at −20° C. or −70° C. until analyzed by LC/MS/MS as described above.

PI3K p110α/p85α (h) = biological target: T1, PI3K p110α/p85α (h) (Homo sapiens, UniProt P42336); assay: PI3K p110α/p85α (h) non-radioactive HTRF assay; format: biochemical
T1 construct: purchased Millipore UK Ltd (assay service)
T1 sequence (P42336 whole entry): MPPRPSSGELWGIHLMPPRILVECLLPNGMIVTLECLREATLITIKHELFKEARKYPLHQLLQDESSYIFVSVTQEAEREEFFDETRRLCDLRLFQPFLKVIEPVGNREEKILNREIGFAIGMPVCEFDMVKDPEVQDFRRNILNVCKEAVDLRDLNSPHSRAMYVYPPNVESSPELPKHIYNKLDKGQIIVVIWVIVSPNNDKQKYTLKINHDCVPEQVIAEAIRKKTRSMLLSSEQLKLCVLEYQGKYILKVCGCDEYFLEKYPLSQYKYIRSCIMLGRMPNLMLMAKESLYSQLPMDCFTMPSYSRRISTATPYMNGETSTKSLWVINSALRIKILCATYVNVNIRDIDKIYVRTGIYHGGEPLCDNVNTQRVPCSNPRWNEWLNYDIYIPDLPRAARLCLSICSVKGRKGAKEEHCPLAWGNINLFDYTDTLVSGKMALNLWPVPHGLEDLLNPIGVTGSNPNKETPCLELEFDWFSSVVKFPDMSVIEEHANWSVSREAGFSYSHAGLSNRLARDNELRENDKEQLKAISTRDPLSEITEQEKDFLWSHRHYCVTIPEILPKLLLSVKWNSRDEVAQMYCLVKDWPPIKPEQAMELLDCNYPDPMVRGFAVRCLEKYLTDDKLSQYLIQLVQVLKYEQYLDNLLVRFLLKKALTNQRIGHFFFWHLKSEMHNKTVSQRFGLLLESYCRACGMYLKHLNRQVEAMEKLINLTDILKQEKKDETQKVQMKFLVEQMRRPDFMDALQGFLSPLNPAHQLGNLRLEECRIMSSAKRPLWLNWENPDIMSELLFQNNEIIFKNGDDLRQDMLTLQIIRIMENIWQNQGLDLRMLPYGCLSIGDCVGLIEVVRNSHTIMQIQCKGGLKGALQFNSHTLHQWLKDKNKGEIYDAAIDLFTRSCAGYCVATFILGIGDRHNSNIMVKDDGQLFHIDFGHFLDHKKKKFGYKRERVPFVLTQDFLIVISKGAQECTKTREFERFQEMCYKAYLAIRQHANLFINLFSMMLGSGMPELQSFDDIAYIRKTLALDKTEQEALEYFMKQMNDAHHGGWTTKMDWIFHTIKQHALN
T1 sequence (P27986 whole entry partner): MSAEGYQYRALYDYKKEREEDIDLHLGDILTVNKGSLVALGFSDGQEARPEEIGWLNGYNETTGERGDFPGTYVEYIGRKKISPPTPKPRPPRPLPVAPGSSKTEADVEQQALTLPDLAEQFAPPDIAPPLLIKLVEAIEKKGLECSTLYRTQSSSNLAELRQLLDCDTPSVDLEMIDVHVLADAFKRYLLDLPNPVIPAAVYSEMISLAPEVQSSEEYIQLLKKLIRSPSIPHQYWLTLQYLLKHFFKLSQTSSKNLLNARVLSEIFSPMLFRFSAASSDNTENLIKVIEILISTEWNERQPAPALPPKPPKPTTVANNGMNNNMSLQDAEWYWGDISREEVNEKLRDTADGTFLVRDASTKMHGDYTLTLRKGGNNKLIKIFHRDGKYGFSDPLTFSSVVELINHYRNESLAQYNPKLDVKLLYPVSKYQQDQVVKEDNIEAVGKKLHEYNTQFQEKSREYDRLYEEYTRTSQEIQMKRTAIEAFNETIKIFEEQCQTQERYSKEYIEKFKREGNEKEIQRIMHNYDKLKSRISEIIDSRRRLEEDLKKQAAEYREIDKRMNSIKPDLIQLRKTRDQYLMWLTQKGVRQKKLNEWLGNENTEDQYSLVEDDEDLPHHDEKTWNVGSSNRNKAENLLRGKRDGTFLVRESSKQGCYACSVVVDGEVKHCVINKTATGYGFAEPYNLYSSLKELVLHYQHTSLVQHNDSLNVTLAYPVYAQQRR
Experimental: PI3K p110α/p85α (h) is incubated in assay buffer containing 10 μM phosphatidylinositol 4,5-bisphosphate and MgATP (concentration as required). The reaction is initiated by the addition of the ATP solution. After incubation for 30 minutes at room temperature, the reaction is stopped by the addition of stop solution containing EDTA and biotinylated phosphatidylinositol-3,4,5-trisphosphate. Finally, detection buffer is added, which contains europium-labelled anti-GST monoclonal antibody, GST-tagged GRP1 PH domain and streptavidin allophycocyanin. The plate is then read in timeresolved fluorescence mode and the homogenous time-resolved fluorescence (HTRF) signal is determined according to the formula HTRF=10000×(Em665 nm/Em620 nm).
(§1) The kinase assays described herein were performed at Millipore UK Ltd, Dundee Technology Park, Dundee DD2 1SW, UK.

[2] = Compound stability in rat liver microsomes; format: in vitro ADME; conditions: pH 7.4; for half-life at 5 μM: rat liver microsomes 0.5 mg protein/mL, compound 5 μM, NADPH 1.0 mM, 37° C., read-out: Rat T1/2; for CLint scaled at 5 μM: rat liver microsomes, in vivo CLint extrapolated
Experimental: (§2) Human or rat liver microsomes incubations were conducted in duplicate in polypropylene tubes. The typical incubation mixtures consisted of human or rat liver microsomes (0.5 mg protein/mL), compounds of interest (5 μM) and NADPH (1.0 mM) in a total volume of 200 μL potassium phosphate buffer (PBS, 100 mM, pH=7.4). Compounds were dissolved in DMSO and diluted with PBS such that the final concentration of DMSO was 0.05%. The enzymatic reactions were commenced with the addition of […] after a 3-min preincubation and incubated in a water bath open to the air at 37° C. Reactions were terminated at various time points (0, 5, 10, 15, 30, 60 min) by adding equal volume of ice-cold acetonitrile. The samples were stored at −80° C. until LC/MS/MS assays.
(§3) The concentrations of compounds in the incubation mixtures of human or rat liver microsomes were determined by a LC/MS/MS method. The ranges of the linearity in the concentration range were determined for each tested compounds.
(§4) A parallel incubation was performed using denatured microsomes as the negative control, and reactions were terminated at various time points (0, 15, 60 min) after incubation at 37° C.
(§5) Dextromethorphan (70 μM) was selected as the positive control, and reactions were terminated at various time points (0, 5, 10, 15, 30, 60 min) after incubation at 37° C. Both positive and negative control samples were included in each assay to ensure the integrity of the microsomal incubation system.
(§6) The concentrations of compounds in human or rat liver microsome incubations were plotted as a percentage of the relevant zero time point control for each reaction. The in vivo CLint were extrapolated (ref: Naritomi Y, Terashita S, Kimura S, Suzuki A, Kagayama A, Sugiyama Y. Prediction of human hepatic clearance from in vivo animal experiments and in vitro metabolic studies with liver microsomes from animals and humans. Drug Metabolism and Disposition 2001, 29: 1316-1324).

mTOR (h) = biological target: T2, mTOR (h) (Homo sapiens, UniProt P42345); assay: mTOR (h) kinase assay (33P-ATP, filter); format: biochemical
T2 construct: purchased Millipore UK Ltd (assay service)
Experimental: mTOR (h) is incubated with 50 mM HEPES pH 7.5, 1 mM EDTA, 0.01% Tween 20, 2 mg/mL substrate, 3 mM Manganese Chloride and [γ-^33P-ATP] (specific activity approx. 500 cpm/pmol, concentration as required). The reaction is initiated by the addition of the MnATP mix. After incubation for 40 minutes at room temperature, the reaction is stopped by the addition of 3% phosphoric acid solution. 10 μL of the reaction is then spotted onto a P30 filtermat and washed three times for 5 minutes in 75 mM phosphoric acid and once in methanol prior to drying and scintillation counting.
as §1

[3] = Compound stability in human liver microsomes; format: in vitro ADME; conditions: pH 7.4; for half-life at 5 μM: human liver microsomes 0.5 mg protein/mL, compound 5 μM, NADPH 1.0 mM, 37° C., read-out: Human T1/2; for CLint scaled at 5 μM: human liver microsomes, in vivo CLint extrapolated
Experimental: as §2, §3, §4, §5, §6

U87MG glioblastoma cells = assay: Tumor xenograft model (U87MG), tumor growth inhibition; format: in vivo, athymic nude mice; conditions: 12 days
Experimental: The efficacy of compounds disclosed herein was evaluated in a standard murine model of tumorigenesis. Human tumor cells (U87MG glioblastoma cells from ATCC) were expended in culture, harvested, and injected subcutaneously onto the rear flank of 6-7 week old female athymic nude mice (BALB/cA nu/nu, Hunan SLAC Laboratory Animal, Co.) (n=6-10 for vehicle group and for each dosing group). When tumors reached a volume of 100-250 mm^3, animals were randomly divided into vehicle control (for example, 5% DMSO+70% Captisol® (30%), 7% HCl (pH1), 18% Captisol® (30%); or 7% DMSO, 7% HCl (pH1), 70% Captisol® (30%), 16% Captisol® (30%), or the like) and compound groups. Subsequent administration of compound by oral gavage begins anywhere from day 0 to day 15 post tumor cell challenge and generally continues with once a day for the duration of the experiment.
Progression of tumor growth is assessed by tumor volumes and recorded as a function of time. The long (L) and short (W) axes of the subcutaneous tumors were measured with calipers twice weekly, and the tumor volume (TV) calculated as (L×W^2)/2). TGI was calculated from the difference between the median tumor volumes of vehicle-treated and drug-treated mice, expressed as a percentage of the median tumor volume of the vehicle-treated control group, by the following relation:
Initial statistical analysis is done by repeated measures analysis of variance (RMANOVA), followed by Scheffe psot hoc testing for multiple comparisons. Vehicle alone (5% DMSO+70% Captisol® (30%), 7% HCl (pH1), 18% Captisol® (30%); or 7% DMSO, 7% HCl (pH1), 70% Captisol® (30%), 16% Captisol® (30%), or the like) is the negative control.

## 4-fluoro N (5 (3 (3 hydroxy-3-methylbut-1-yn-1-yl)-[1,2,4]-triazolo[4,3-b]pyridazin-6-yl)-2-methoxypyridin-3-yl)benzenesulfonamide [Ex. 12]
[1]; iv dose 2 mg/kg
  F: 1.3%
[1]; iv dosing 2 mg/kg
  AUClast: 411 ng·h/mL
  Cl/F: 77.8 mL/min/kg
  T1/2: 4.71 h
  Vss: 18.42 L/kg
PI3K p110α/p85α (h)
  IC50: 32 nM

## COc1ncc(-c2ccc3ncc(C#CC(C)(C)O)n3n2)cc1NS(=O)(=O)c1ccc(F)cc1 [Ex. 4, 4-fluoro-N-(5-(3-(3-hydroxy-3-methylbut-1-yn-1-yl)imidazo[1,2-b]pyridazin-6-yl)-2-methoxypyridin-3-yl)benzenesulfonamide]
[2]
  half-life at 5 μM: 0.666 h
  CLint scaled at 5 μM: 62.1 mL/min/kg
mTOR (h)
  IC50: 19 nM
[3]
  half-life at 5 μM: 1.87 h
  CLint scaled at 5 μM: 15.5 mL/min/kg
PI3K p110α/p85α (h)
  IC50: 41 nM

## CC#Cc1cnc2ccc(-c3cnc(OC)c(NS(=O)(=O)c4ccc(F)cc4)c3)nn12 [Ex. 5, 4-fluoro-N-(2-methoxy-5-(3-(prop-1-yn-1-yl)imidazo[1,2-b]pyridazin-6-yl)pyridin-3-yl)benzenesulfonamide]
[2]
  half-life at 5 μM: 0.595 h
  CLint scaled at 5 μM: 69.5 mL/min/kg
[1]; iv dose 1 mg/kg
  F: 95.6%
[1]; iv dosing 1 mg/kg
  Cl/F: 6.17 mL/min/kg
  AUC(0-t): 2550 ng·h/mL
  half-life: 8.74 h
  Vd: 2.29 L/kg
[3]
  half-life at 5 μM: 1.14 h
  CLint scaled at 5 μM: 25.4 mL/min/kg
PI3K p110α/p85α (h)
  IC50: 17 nM

## COc1ncc(-c2ccc3ncc(C#N)n3n2)cc1NS(=O)(=O)c1ccc(F)cc1 [Ex. 6, N-(5-(3-cyanoimidazo[1,2-b]pyridazin-6-yl)-2-methoxypyridin-3-yl)-4-fluorobenzenesulfonamide]
[1]; iv dose 1 mg/kg
  F: 123.7%
[1]; iv dosing 1 mg/kg
  Cl/F: 5.5 mL/min/kg
  AUC(0-t): 2660 ng·h/mL
  half-life: 3.7 h
  Vd: 1.25 L/kg
U87MG glioblastoma cells; 0.3 mg/kg oral gavage
  TGI % U87MG: 14%
U87MG glioblastoma cells; 1 mg/kg oral gavage
  TGI % U87MG: 41%
U87MG glioblastoma cells; 3 mg/kg oral gavage
  TGI % U87MG: 71%
PI3K p110α/p85α (h)
  IC50: 4 nM

## C#Cc1cnc2ccc(-c3cnc(Cl)c(NS(=O)(=O)c4ccc(F)cc4)c3)nn12 [Ex. 7, N-(2-chloro-5-(3-ethynylimidazo[1,2-b]pyridazin-6-yl)pyridin-3-yl)-4-fluorobenzenesulfonamide]
mTOR (h)
  IC50: 24 nM
[1]; iv dose 2 mg/kg
  F: 95.4%
[1]; iv dosing 2 mg/kg
  Cl/F: 0.67 mL/min/kg
  AUC(0-t): 48100 ng·h/mL
  half-life: 3.19 h
  Vd: 0.17 L/kg
PI3K p110α/p85α (h)
  IC50: 20 nM
